Experimental data: article PMC7648750, “In vitro and in vivo BNCT investigations using a carborane containing sulfonamide targeting CAIX epitopes on malignant pleural mesothelioma and breast cancer cells” (Scientific Reports, 2020)

Experiments:
AB22 cells [1] = experiment: MTT cell vitality assay; assay type: cell-based, mouse; conditions: normoxia
Description: The MTT assay is based on the reduction in the mitochondria of metabolically active cells by succinate dehydrogenase obtaining a precipitation of purple formazan crystal. The assay was carried out using the same protocol reported by Azzi et al[42]. Briefly, AB22, ZL34 and MCF7 cells were seeded at a density of 7 × 10^3, 5 × 10^3 and 1 × 10^4 cells per well, respectively, in a 96-well microtiter plate. After 24 h at 37 °C and 5% CO2, they were incubated with increasing concentration of CA-SF or AZ for 24 h in a condition of normoxia at 37 °C and 5% CO2 by adding stock solutions in dimethyl sulfoxide (DMSO). In all the conditions the concentration of DMSO during the cell incubation was maintained under 0.25% (v/v) in cell medium. After the incubation, the medium was removed and each well was incubated with thiazolyl blue tetrazolium bromide (Sigma) dissolved in the medium at a concentration of 0.45 mg/mL for 4 h at 37 °C and 5% CO2. Then, after medium elimination, 150 µL of DMSO were added into each well to solubilise the formazan salt crystals produced by the metabolism of live cells and the microplate was incubated at room temperature (RT) for 30 min. Finally, absorbance was measured at 570 nm using an iMark microplate reader (Biorad). Cell vitality was reported as the percentage of […] cells observed in the treated samples relative to that observed in the non-treated control cells.

MCF7 cells [2] = experiment: BNCT in vitro: viable cells 24 h after neutron irradiation (trypan blue); assay type: cell-based, human; conditions: MCF7, 72 µM 24 h, thermal neutrons 15 min 30 kW, 24 h after irradiation
Description: (§1) 75 flasks of MCF7 (4 flasks), ZL34 (4 flasks) and AB22 (4 flasks) were seeded at a density of 1.8 × 10^6 cells, 1.2 × 10^6 cells and 5.5 × 10^5 cells, respectively. 24 h later for MCF7 and ZL34 and 72 h later for AB22, 2 flasks of each cell lines were incubated for 24 h in the presence of 72 µM, 187.5 µM and 130 µM of CA-SF, respectively. After the incubation, cells were washed with PBS and their medium was renewed. Two flasks of MCF7, ZL34 and AB22 cells incubated with CA-SF and two flasks containing non-treated control cells were irradiated for 15′ at 30 kW reactor power in the thermal column of the TRIGA Mark II reactor at the University of Pavia, Italy. At the end of the irradiation, the medium was removed, it was replaced with fresh medium and flasks were placed at 37 °C in a humidified atmosphere of 5% CO2.
(§2) The proliferation assay was carried out following the same procedure reported in reference 32. The day after irradiation cells were detached with 0.05% trypsin and 0.02% EDTA and the trypan blue exclusion test of cell viability was performed. Cell viability was reported as percentage of cells observed in treated a/o irradiated samples relative to that observed in control cells.

ZL34 cells [3] = experiment: as above; assay type: cell-based, human; conditions: ZL34, 187.5 µM 24 h, thermal neutrons 15 min 30 kW, 24 h after irradiation
Description: as §1, §2

MCF7 cells [4] = experiment: Proliferation assay of cells surviving irradiation; assay type: cell-based, human; conditions: MCF7, 72 µM CA-SF before neutron irradiation
Description: as §1, with “At the end of the irradiation, the medium was removed, it was replaced with fresh medium and flasks were placed at 37 °C in a humidified atmosphere of 5% CO2.” left out
(§3) Then, around 7 × 10^5 MCF7, 3.5 × 10^5 ZL34 and 1 × 10^5 AB22 cells from each differently treated flask were seeded in 10 cm diameter culture dishes. […] Then, cells were sonicated for 30 s at 30% power in ice and the total cell protein concentration (that is proportional to the number of cells) from cell lysates was determined by the Bradford method, using bovine serum albumin as a standard. The Cell Growth Rate was calculated as follows: Number of cellsti-Number of cellst0/Number of cellst0×100 for which Number of cells (ti) is the number of cells measured at the various time intervals and the number of cells (t0) is the number of cells at the starting point (t = 0) of the proliferation assay.

ZL34 cells [5] = experiment: Proliferation assay of cells surviving irradiation; assay type: cell-based, human; conditions: ZL34, 187.5 µM CA-SF before neutron irradiation
Description: as §1, with “At the end of the irradiation, the medium was removed, it was replaced with fresh medium and flasks were placed at 37 °C in a humidified atmosphere of 5% CO2.” left out
as §3

[6] = Mice weight monitoring after treatment; assay type: in vivo, Balb/c mice
Description: CA-SF treatment on mesothelioma bearing mice, were performed in the thermal column of the TRIGA Mark II reactor at Pavia University (Italy) using the same protocol reported in reference^35. The irradiation facility was previously designed for TAOrMINA treatment developed to treat multiple liver metastases with BNCT. The chamber used to perform animal irradiation has a cross section of 40 × 20 cm^2, a length of 1 m and it starts at about 1.3 m from the center of the reactor core. The animal irradiation position has been characterised in terms of neutron spectrum and background photon dose[43]. To carry out neutron irradiation animals are positioned at the end of this chamber where the in air thermal neutron flux is approximately 1.2 × 10^10 n/cm^2s, operating the reactor at its maximum power. In this way the thermal neutron flux is maximised and the irradiation time is kept as short as possible (never longer than 15 min). The first mice group (irradiated and treated group, n = 5) received three doses of CA-SF/poli β cyclodextrin (37.5 mg boron/kg dose) prepared as described before. […]
The weight of IRR, CA-SF and CA-SF + IRR groups was monitored till the end of the experiment (Supplementary Figure S1).

AB22 cells [7] = experiment: Proliferation assay of cells surviving irradiation; assay type: cell-based, mouse; conditions: AB22, 130 µM CA-SF before neutron irradiation
Description: as §1, with “At the end of the irradiation, the medium was removed, it was replaced with fresh medium and flasks were placed at 37 °C in a humidified atmosphere of 5% CO2.” left out
as §3

- loss of initial weight ([6]; treated and irradiated mice, CA-SF three doses + 15 min irradiation 250 kW): 10%
- weight decrease at the end of the study ([6]; treated mice (CA-SF, not irradiated)): 5%
Substance: 1-Sulfonamidomethyl-o-carborane [CA-SF]
- cell vitality measured by MTT (AB22 cells [1]; AB22, 130 µM CA-SF, 24 h, 37 °C): about 80%
- percentage of viable cells with increasing concentration (MTT) (AB22 cells [1]; AB22, 24 h, Fig. 3): steadily decreases
- viability of CA-SF treated and irradiated cells vs CA-SF treated cells (MCF7 cells [2]): significantly reduced
- viability of CA-SF treated and irradiated cells vs CA-SF treated cells (ZL34 cells [3]): comparable
- proliferation rate of cells surviving to irradiation (MCF7 cells [4]): marked inhibition of proliferation
- proliferation rate of cells surviving to irradiation (ZL34 cells [5]): marked inhibition of proliferation
- proliferation rate of cells surviving to irradiation (AB22 cells [7]): marked inhibition of proliferation
